These results are taken from ChEMBL document CHEMBL4138182, “Aminomethylation of heliomycin: Preparation and anticancer characterization of the first series of semi-synthetic derivatives” (Eur J Med Chem, 2018).

Each structure is given as a SMILES string. Activity calls are given as the source filed them. No cut-off for these calls is given here.

For series [1], the system named is Calf thymus DNA. As to the kind of experiment: Binding affinity to calf thymus DNA by visible spectroscopic method. Conditions: Bos taurus. Type of series: nucleic-acid assay.
Another series has as its system L1210. The experiment in a line: Antiproliferative activity against mouse L1210 cells after 72 hrs by MTT assay. It is filed as functional, cell-based. As to conditions: L1210, 72 h.
Series [2] relates to HCT-116. The experiment in a line: Antiproliferative activity against human HCT116 cells after 72 hrs by MTT assay. It is filed as functional, cell-based. Conditions: HCT-116, 72 h.
The subject of the next series is HeLa. The experiment in a line: Antiproliferative activity against human HeLa cells after 72 hrs by MTT assay. Type of series: functional, cell-based.
For the next series, the system named is CCRF-CEM. The experiment in a line: Antiproliferative activity against human CEM cells after 72 hrs by MTT assay. It is filed as functional, cell-based.
Series [3] can be described thus: Resistance index, ratio of IC50 for human K562/4 cells to IC50 for human K562 cells. It is filed as functional.
Series [4] concerns HCT-116. The experiment in a line: Antiproliferative activity against p53 deficient human HCT116 cells after 72 hrs by MTT assay. It is filed as functional, cell-based. Conditions: HCT-116, 72 h.
A short description of series [5]: Antiproliferative activity against human K562/4 cells after 72 hrs by MTT assay. It is filed as functional, cell-based. Conditions: K562/4, 72 h.
For another series, the system named is K562. As to the kind of experiment: Antiproliferative activity against human K562 cells after 72 hrs by MTT assay. Type of series: functional, cell-based. Conditions: K562, 72 h.
Series [6] relates to T-24. The experiment in a line: Induction of apoptosis n human T24 cells assessed as downregulation of Bcl-2 levels at 0.5 to 1 uM after 18 hrs by Western blot method. It is filed as functional, cell-based.
Series [7] concerns T-24. The experiment in a line: Induction of apoptosis n human T24 cells assessed as PARP cleavage at 0.5 to 1 uM after 18 hrs by Western blot method. It is filed as functional, cell-based.
The subject of series [8] is T-24. The experiment in a line: Induction of apoptosis n human T24 cells assessed as upregulation of p53 levels at 0.5 to 1 uM after 18 hrs by Western blot method. It is filed as functional, cell-based.
In series [9] the test system is T-24. The experiment in a line: Induction of apoptosis n human T24 cells assessed as caspase-3 cleavage at 0.5 to 1 uM after 18 hrs by Western blot method. Type of series: functional, cell-based.
Series [10] deals with Calf thymus DNA. As to the kind of experiment: Binding affinity to calf thymus double stranded DNA at 10 uM by fluorescence spectrophotometer. Type of series: nucleic-acid assay. Conditions: Bos taurus.
Series [11] relates to Calf thymus DNA. As to the kind of experiment: Binding affinity to calf thymus double stranded DNA by Benesi-Hildebrand plot analysis. It is filed as nucleic-acid assay, Bos taurus.
Series [12] deals with T1, DNA topoisomerase 1 (Homo sapiens) (UniProt P11387).
T1 sequence (whole entry): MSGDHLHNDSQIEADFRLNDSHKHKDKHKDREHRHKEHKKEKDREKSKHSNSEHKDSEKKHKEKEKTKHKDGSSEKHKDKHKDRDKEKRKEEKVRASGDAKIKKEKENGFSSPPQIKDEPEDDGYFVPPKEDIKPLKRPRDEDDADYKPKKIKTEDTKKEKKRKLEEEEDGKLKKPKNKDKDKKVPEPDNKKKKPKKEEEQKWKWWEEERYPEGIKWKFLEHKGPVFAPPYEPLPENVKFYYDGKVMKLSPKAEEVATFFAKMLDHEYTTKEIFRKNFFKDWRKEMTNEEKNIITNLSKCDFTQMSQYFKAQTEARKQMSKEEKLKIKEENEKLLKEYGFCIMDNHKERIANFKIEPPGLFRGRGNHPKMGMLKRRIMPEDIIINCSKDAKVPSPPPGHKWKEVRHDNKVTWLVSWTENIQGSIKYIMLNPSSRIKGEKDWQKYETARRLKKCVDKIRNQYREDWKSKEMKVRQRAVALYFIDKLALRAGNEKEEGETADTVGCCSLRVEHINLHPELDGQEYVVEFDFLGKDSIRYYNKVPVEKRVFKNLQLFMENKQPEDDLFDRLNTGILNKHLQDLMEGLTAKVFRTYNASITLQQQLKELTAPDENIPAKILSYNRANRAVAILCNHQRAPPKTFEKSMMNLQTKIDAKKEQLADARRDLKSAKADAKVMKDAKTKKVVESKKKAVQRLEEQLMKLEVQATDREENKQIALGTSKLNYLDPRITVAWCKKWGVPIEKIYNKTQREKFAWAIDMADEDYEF
The experiment in a line: Inhibition of human DNA topoisomerase 1 assessed as decrease in relaxation of pBR322 at 5 to 20 uM after 30 to 40 mins by agarose gel electrophoresis.

For series [13], the target named is T1, DNA topoisomerase 1 (Homo sapiens). The experiment in a line: Inhibition of human DNA topoisomerase 1 assessed as decrease in relaxation of pBR322 at <= 20 uM after 30 to 40 mins by agarose gel electrophoresis.
Series [14] has as its system T-24. The experiment in a line: Induction of reactive oxygen species generation in human T24 cells at 1 uM after 30 mins by H2DCFDA dye-based flow cytometric method. It is filed as functional, cell-based.
Series [15] deals with T-24. The experiment in a line: Induction of apoptosis n human T24 cells assessed as upregulation of Bak levels at 0.5 to 1 uM after 18 hrs by Western blot method. Type of series: functional, cell-based.
The test system of series [16] is T-24. The experiment in a line: Growth inhibition of human T24 cells after 72 hrs by cell impedance method. Type of series: functional, cell-based. Conditions: T-24, 72 h.
The subject of series [17] is T-24. As to the kind of experiment: Induction of apoptosis n human T24 cells at 1 uM after 24 hrs by annexin V-FITC/propidium iodide staining-based flow cytometric method. Type of series: functional, cell-based.
Series [18] can be described thus: Selectivity index, ratio of IC50 for HMEC1 cells to IC50 for human K562/4 cells. Type of series: toxicity. Conditions: HMEC1 cells and K562/4 cells, read-out: Ratio IC50.
Series [19] in a line: Selectivity index, ratio of IC50 for HMEC1 cells to IC50 for p53 deficient human HCT116 cells. Type of series: toxicity. As to conditions: HMEC1 cells and p53 deficient HCT116 cells, read-out: Ratio IC50.
Series [20] can be described thus: Selectivity index, ratio of IC50 for HMEC1 cells to IC50 for mouse L1210 cells. Type of series: toxicity. As to conditions: HMEC1 cells and L1210 cells, read-out: Ratio IC50.
Series [21] is described as follows: Selectivity index, ratio of IC50 for HMEC1 cells to IC50 for human HeLa cells. It is filed as toxicity. As to conditions: HMEC1 cells and HeLa cells, read-out: Ratio IC50.
For a further series, the system named is HMEC-1. As to the kind of experiment: Antiproliferative activity against HMEC1 cells after 72 hrs by MTT assay. Type of series: cell-based. Conditions: Homo sapiens, HMEC-1, 72 h.
The nature of series [22]: Selectivity index, ratio of IC50 for HMEC1 cells to IC50 for human CEM cells. Type of series: toxicity. Conditions: HMEC1 cells and CEM cells, read-out: Ratio IC50.
Series [23] is described as follows: Selectivity index, ratio of IC50 for HMEC1 cells to IC50 for human HCT116 cells. Type of series: toxicity. Conditions: HMEC1 cells and HCT116 cells, read-out: Ratio IC50.
Series [24] is described as follows: Selectivity index, ratio of IC50 for HMEC1 cells to IC50 for human K562 cells. As to conditions: HMEC1 cells and K562 cells, read-out: Ratio IC50. It is filed as toxicity.

On to `COc1cccc2c1C(=O)c1c(O)c3c(c(O)c1C2=O)C[C@@](O)(C(=O)CO)C[C@@H]3O[C@H]1C[C@H](N)[C@H](O)[C@H](C)O1`, for which, in the series on Calf thymus DNA [1], the Kb was found to be 2 ×10⁶ /M.

Take `Cc1cc(O)c2c3c4c(cc(O)c13)C(C)(C)C(=O)c1c(O)c(CNCCO)c(O)c(c1-4)C2=O`: the IC50 in the series with L1210 was determined as 3800 nM; in the series on HCT-116 [2], 500 nM; in the series with HeLa, 3600 nM; in the series with CCRF-CEM, 3300 nM; in the series on HCT-116 [4], 1000 nM; in [5], 19400 nM. This compound displayed an IC50 with K562 of 1300 nM. Also, the “Ratio IC50” value in [3] is given as 20.

`Cc1cc(O)c2c3c4c(cc(O)c13)C(C)(C)C(=O)c1c(O)c(CN3CCC(N)CC3)c(O)c(c1-4)C2=O`: the outcome with T-24 [6], with T-24 [7], in the series with T-24 [8], in the series with T-24 [9], in the series on Calf thymus DNA [10] and in the series with T-24 [14] was Active. In addition, the result in the series on T-24 [15] and in the series with T-24 [17] was Active. Besides, the IC50 in the series with L1210 came to 800 nM; in the series on HCT-116 [2], 1200 nM; with HeLa, 2600 nM; in the series with CCRF-CEM, 2300 nM; in the series with HCT-116 [4], 700 nM; in [5], 4100 nM. In addition, the results for the IC50 in the series on K562 and with T-24 [16] were 600 nM and 4400 nM, respectively. Besides, the dissociation constant (Kd) in the series with Calf thymus DNA [11] stood at 8100 nM. The Kb in the series with Calf thymus DNA [11] (Bos taurus) was 1.2 ×10⁵ /M. For the same compound, in [12], the inhibition result was “Active”. Further, in series [13], the “Topoisomerase 1 inhibition (active/inactive)” value was “Active”.

Consider `CCOC(=O)[C@@H]1CCCN1Cc1c(O)c2c3c(c1O)C(=O)C(C)(C)c1cc(O)c4c(C)cc(O)c(c4c1-3)C2=O`, for which the selectivity ratio in [18], in series [19], in series [20], in [21], in series [22] and in series [23] was 2 to 50 throughout. Also, the selectivity ratio in series [24] fell in the range of 2 to 50. For the same compound, the IC50 in the series on L1210 is 3500 nM; in the series on HCT-116 [2], 700 nM; in the series on HeLa it was 1300 nM; with HMEC-1, 5900 nM; in the series on CCRF-CEM, 1200 nM; with HCT-116 [4] it was 1000 nM. In addition, the IC50 was found to be 1500 nM in series [5] and 2200 nM in the series on K562. The “Topoisomerase 1 inhibition (active/inactive)” value in series [13] is “Active”.

For the compound `Cc1cc(O)c2c3c4c(cc(O)c13)C(C)(C)C(=O)c1c(O)c(CN(CC(=O)O)CC(=O)O)c(O)c(c1-4)C2=O`, the selectivity ratio in series [18], in series [19], in series [20], in series [21], in series [22] and in series [23] was 2 to 50 throughout. Besides, the selectivity ratio in series [24] is 2 to 50. The IC50 with L1210 is 31000 nM; with HCT-116 [2], 200 nM; in the series on HeLa, 6500 nM; in the series with HMEC-1, 34300 nM; with CCRF-CEM it was 9700 nM; in the series on HCT-116 [4], 600 nM. For the same compound, the IC50 was found to be 3100 nM in series [5] and 5500 nM in the series with K562. In addition, the “Topoisomerase 1 inhibition (active/inactive)” value in [13] was “Active”.
